Test results from US20140120232A1, “ACID TASTE/ACID SMELL-REDUCING AGENT” (T. HASEGAWA CO., LTD., priority 2011, published 2014).

Assay: Sensory evaluation of Vermont drink containing the agent
Conditions: ten panels
Experimental: Water was added to a mixture of 10 g of apple-cider vinegar (acetic acid: 4.8%), 3 g of honey, 7 g of fructose-glucose liquid sugar mixed with sugar, 0.02 g of citric acid, 0.002 g of trisodium citrate, and 0.1 g of a Vermont flavor (manufactured by T. Hasegawa Co., Ltd.) to give a total amount of 100 mL. To the resulting mixture was added (Z,Z)-4,7-tridecadienal as the acid taste and/or acid smell-reducing agent of the present invention in concentrations shown in the following Table 1 to give Vermont drinks containing the agent.
Sensory evaluation of each drink was carried out by ten panels. […] The piercing aroma characteristic to aldehydes is a characteristic aroma common to every aldehyde and refers to an irritant off-smell giving an image of deteriorated oils and fats, soap, metals, Houttuynia cordata, etc. The judgment of smell was performed by comparing the effects at different concentrations of the acid taste and/or acid smell-reducing agent, and a concentration giving the highest acid taste/acid smell quality was selected. […]

SMILES: CCCCC/C=C/C/C=C/C=C/C=O [(E,E,E)-2,4,7-tridecatrienal]
- A: number of panels, acid taste/acid smell extreme and cause irritation (0.005 ppt): 10
- B: number of panels, acid taste/acid smell slightly strong and slightly cause irritation (0.005 ppt): 0
- C: number of panels, acid taste/acid smell slightly unpleasant (0.005 ppt): 0
- Flavor judgment: number of panels who judged acid taste/acid smell quality the highest (0.005 ppt): 0
- N: number of panels, irritation of acid reduced to give a mild acid taste (0.005 ppt): 0
- X: number of panels, acid taste reduced but piercing odor characteristic to aldehydes unpleasant (0.005 ppt): 0
- A: number of panels, acid taste/acid smell extreme and cause irritation (0.02 ppt): 10
- B: number of panels, acid taste/acid smell slightly strong and slightly cause irritation (0.02 ppt): 0
- C: number of panels, acid taste/acid smell slightly unpleasant (0.02 ppt): 0
- Flavor judgment: number of panels who judged acid taste/acid smell quality the highest (0.02 ppt): 0
- N: number of panels, irritation of acid reduced to give a mild acid taste (0.02 ppt): 0
- X: number of panels, acid taste reduced but piercing odor characteristic to aldehydes unpleasant (0.02 ppt): 0
- A: number of panels, acid taste/acid smell extreme and cause irritation (0.1 ppt): 10
- B: number of panels, acid taste/acid smell slightly strong and slightly cause irritation (0.1 ppt): 0
- C: number of panels, acid taste/acid smell slightly unpleasant (0.1 ppt): 0
- Flavor judgment: number of panels who judged acid taste/acid smell quality the highest (0.1 ppt): 0
- N: number of panels, irritation of acid reduced to give a mild acid taste (0.1 ppt): 0
- X: number of panels, acid taste reduced but piercing odor characteristic to aldehydes unpleasant (0.1 ppt): 0
- A: number of panels, acid taste/acid smell extreme and cause irritation (0.2 ppt): 9
- B: number of panels, acid taste/acid smell slightly strong and slightly cause irritation (0.2 ppt): 1
- C: number of panels, acid taste/acid smell slightly unpleasant (0.2 ppt): 0
- Flavor judgment: number of panels who judged acid taste/acid smell quality the highest (0.2 ppt): 0
- N: number of panels, irritation of acid reduced to give a mild acid taste (0.2 ppt): 0
- X: number of panels, acid taste reduced but piercing odor characteristic to aldehydes unpleasant (0.2 ppt): 0
- A: number of panels, acid taste/acid smell extreme and cause irritation (0.5 ppt): 7
- B: number of panels, acid taste/acid smell slightly strong and slightly cause irritation (0.5 ppt): 1
- C: number of panels, acid taste/acid smell slightly unpleasant (0.5 ppt): 2
- Flavor judgment: number of panels who judged acid taste/acid smell quality the highest (0.5 ppt): 0
- N: number of panels, irritation of acid reduced to give a mild acid taste (0.5 ppt): 0
- X: number of panels, acid taste reduced but piercing odor characteristic to aldehydes unpleasant (0.5 ppt): 0
- A: number of panels, acid taste/acid smell extreme and cause irritation (1 ppb): 0
- B: number of panels, acid taste/acid smell slightly strong and slightly cause irritation (1 ppb): 0
- C: number of panels, acid taste/acid smell slightly unpleasant (1 ppb): 2
- Flavor judgment: number of panels who judged acid taste/acid smell quality the highest (1 ppb): 0
- N: number of panels, irritation of acid reduced to give a mild acid taste (1 ppb): 4
- X: number of panels, acid taste reduced but piercing odor characteristic to aldehydes unpleasant (1 ppb): 4
- A: number of panels, acid taste/acid smell extreme and cause irritation (1 ppt): 0
- B: number of panels, acid taste/acid smell slightly strong and slightly cause irritation (1 ppt): 7
- C: number of panels, acid taste/acid smell slightly unpleasant (1 ppt): 3
- Flavor judgment: number of panels who judged acid taste/acid smell quality the highest (1 ppt): 0
- N: number of panels, irritation of acid reduced to give a mild acid taste (1 ppt): 1
- X: number of panels, acid taste reduced but piercing odor characteristic to aldehydes unpleasant (1 ppt): 0
- A: number of panels, acid taste/acid smell extreme and cause irritation (5 ppt): 0
- B: number of panels, acid taste/acid smell slightly strong and slightly cause irritation (5 ppt): 2
- C: number of panels, acid taste/acid smell slightly unpleasant (5 ppt): 3
- Flavor judgment: number of panels who judged acid taste/acid smell quality the highest (5 ppt): 2
- N: number of panels, irritation of acid reduced to give a mild acid taste (5 ppt): 5
- X: number of panels, acid taste reduced but piercing odor characteristic to aldehydes unpleasant (5 ppt): 0
- A: number of panels, acid taste/acid smell extreme and cause irritation (10 ppb): 0
- B: number of panels, acid taste/acid smell slightly strong and slightly cause irritation (10 ppb): 0
- C: number of panels, acid taste/acid smell slightly unpleasant (10 ppb): 2
- Flavor judgment: number of panels who judged acid taste/acid smell quality the highest (10 ppb): 0
- N: number of panels, irritation of acid reduced to give a mild acid taste (10 ppb): 2
- X: number of panels, acid taste reduced but piercing odor characteristic to aldehydes unpleasant (10 ppb): 6
- A: number of panels, acid taste/acid smell extreme and cause irritation (20 ppt): 0
- B: number of panels, acid taste/acid smell slightly strong and slightly cause irritation (20 ppt): 1
- C: number of panels, acid taste/acid smell slightly unpleasant (20 ppt): 3
- Flavor judgment: number of panels who judged acid taste/acid smell quality the highest (20 ppt): 5
- N: number of panels, irritation of acid reduced to give a mild acid taste (20 ppt): 6
- X: number of panels, acid taste reduced but piercing odor characteristic to aldehydes unpleasant (20 ppt): 0
- A: number of panels, acid taste/acid smell extreme and cause irritation (50 ppb): 0
- B: number of panels, acid taste/acid smell slightly strong and slightly cause irritation (50 ppb): 0
- C: number of panels, acid taste/acid smell slightly unpleasant (50 ppb): 0
- Flavor judgment: number of panels who judged acid taste/acid smell quality the highest (50 ppb): 0
- N: number of panels, irritation of acid reduced to give a mild acid taste (50 ppb): 3
- X: number of panels, acid taste reduced but piercing odor characteristic to aldehydes unpleasant (50 ppb): 7
- A: number of panels, acid taste/acid smell extreme and cause irritation (100 ppt): 0
- B: number of panels, acid taste/acid smell slightly strong and slightly cause irritation (100 ppt): 2
- C: number of panels, acid taste/acid smell slightly unpleasant (100 ppt): 2
- Flavor judgment: number of panels who judged acid taste/acid smell quality the highest (100 ppt): 3
- N: number of panels, irritation of acid reduced to give a mild acid taste (100 ppt): 6
- X: number of panels, acid taste reduced but piercing odor characteristic to aldehydes unpleasant (100 ppt): 0
- A: number of panels, acid taste/acid smell extreme and cause irritation (500 ppt): 0
- B: number of panels, acid taste/acid smell slightly strong and slightly cause irritation (500 ppt): 0
- C: number of panels, acid taste/acid smell slightly unpleasant (500 ppt): 4
- Flavor judgment: number of panels who judged acid taste/acid smell quality the highest (500 ppt): 0
- N: number of panels, irritation of acid reduced to give a mild acid taste (500 ppt): 4
- X: number of panels, acid taste reduced but piercing odor characteristic to aldehydes unpleasant (500 ppt): 2
